In the supplement of paper PMC10307832 one finds relative viability data, which are given here for nine cell lines.

Common to all, as to assay: relative viability (nuclei count vs DMSO), 5 days (fraction); higher = more cells survive
Compound in the test “QS11 + Navitoclax”: C1CC2=C(C1)C=C(C=C2)OC3=NC(=C4C(=N3)N(C=N4)CC5=CC=C(C=C5)C6=CC=CC=C6)N[C@@H](CC7=CC=CC=C7)CO [QS11] + CC1(C)CCC(c2ccc(Cl)cc2)=C(CN2CCN(c3ccc(C(=O)NS(=O)(=O)c4ccc(N[C@H](CCN5CCOCC5)CSc5ccccc5)c(S(=O)(=O)C(F)(F)F)c4)cc3)CC2)C1 [Navitoclax] (partner 0.5 µM)
The method in brief:
(§1)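 Lung cancer cell lines in 1536-well plates got either a single drug or a fixed anchor-drug dose together with five library-drug doses (not always all listed) in √10 steps, by pin tool, on the day after seeding. Nuclei were counted after 5 days, and relative viability is the treated-to-vehicle ratio of nuclei counts. Values are medians of duplicate plates.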

Compound in the test “QS11 + Lapatinib”: C1CC2=C(C1)C=C(C=C2)OC3=NC(=C4C(=N3)N(C=N4)CC5=CC=C(C=C5)C6=CC=CC=C6)N[C@@H](CC7=CC=CC=C7)CO [QS11] + CS(=O)(=O)CCNCc1ccc(-c2ccc3ncnc(Nc4ccc(OCc5cccc(F)c5)c(Cl)c4)c3c2)o1 [Lapatinib] (partner 2 µM)
The method in brief:
as §1

Compound in the test “Darinaparsin + Dasatinib”: C[As](C)SC[C@H](NC(=O)CC[C@H](N)C(=O)O)C(=O)NCC(=O)O [Darinaparsin] + Cc1nc(Nc2ncc(C(=O)Nc3c(C)cccc3Cl)s2)cc(N2CCN(CCO)CC2)n1 [Dasatinib] (partner 0.075 µM)
The method in brief:
as §1

Compound in the test “AZ628 + Vorinostat”: CC1=C(C=C(C=C1)NC(=O)C2=CC(=CC=C2)C(C)(C)C#N)NC3=CC4=C(C=C3)N=CN(C4=O)C [AZ628] + O=C(CCCCCCC(=O)Nc1ccccc1)NO [Vorinostat] (partner 1 µM)
The essentials:
as §1

Regarding EBC-1, the relative viability with QS11 + Navitoclax (first compound 0.08 µM) turned out to be 0.387; with QS11 + Navitoclax (first compound 0.253 µM), 0.352; in the test with QS11 + Navitoclax (first compound 0.8 µM), 0.374; with QS11 + Navitoclax (first compound 2.53 µM) it was 0.363; in the test with QS11 + Navitoclax (first compound 8 µM), 0.393; in the test with QS11 + Lapatinib (first compound 0.08 µM) it was 0.233. Further, the relative viability is 0.198 in the test with QS11 + Lapatinib (first compound 0.253 µM), 0.194 with QS11 + Lapatinib (first compound 0.8 µM), 0.211 in the test with QS11 + Lapatinib (first compound 2.53 µM) and 0.207 with QS11 + Lapatinib (first compound 8 µM).
As to EKVX, the relative viability with QS11 + Navitoclax (first compound 0.08 µM) is 0.957; with QS11 + Navitoclax (first compound 0.253 µM), 0.863; in the test with QS11 + Navitoclax (first compound 2.53 µM) it was 0.891; with QS11 + Navitoclax (first compound 8 µM), 1.1; in the test with Darinaparsin + Dasatinib (first compound 0.08 µM) it was 0.504; in the test with Darinaparsin + Dasatinib (first compound 0.8 µM) it was 0.488. Besides, the relative viability amounted to 0.53 in the test with Darinaparsin + Dasatinib (first compound 2.53 µM); 0.512 with Darinaparsin + Dasatinib (first compound 8 µM); 0.189 in the test with QS11 + Lapatinib (first compound 0.08 µM); 0.167 in the test with QS11 + Lapatinib (first compound 0.253 µM); 0.216 with QS11 + Lapatinib (first compound 2.53 µM); 0.201 in the test with QS11 + Lapatinib (first compound 8 µM). Besides, the relative viability was 0.952 in the test with AZ628 + Vorinostat (first compound 0.08 µM); 0.698 in the test with AZ628 + Vorinostat (first compound 0.253 µM); 0.848 in the test with AZ628 + Vorinostat (first compound 0.8 µM); 0.579 in the test with AZ628 + Vorinostat (first compound 2.53 µM); 0.53 in the test with AZ628 + Vorinostat (first compound 8 µM).
Turning to EMC-BAC-2, the relative viability came to 1.14 in the test with QS11 + Navitoclax (first compound 0.08 µM); 1.28 in the test with QS11 + Navitoclax (first compound 0.253 µM); 0.896 in the test with QS11 + Navitoclax (first compound 0.8 µM); 1.12 with QS11 + Navitoclax (first compound 2.53 µM); 0.654 in the test with QS11 + Navitoclax (first compound 8 µM); 0.34 with Darinaparsin + Dasatinib (first compound 0.08 µM). In addition, the relative viability with Darinaparsin + Dasatinib (first compound 0.8 µM) was found to be 0.368; with Darinaparsin + Dasatinib (first compound 2.53 µM) it was 0.302; with Darinaparsin + Dasatinib (first compound 8 µM) it was 0.35; with QS11 + Lapatinib (first compound 0.08 µM) it was 0.927; with QS11 + Lapatinib (first compound 0.253 µM), 0.89; with QS11 + Lapatinib (first compound 0.8 µM), 0.884. In addition, the relative viability with QS11 + Lapatinib (first compound 2.53 µM) is 0.984; in the test with QS11 + Lapatinib (first compound 8 µM) it was 0.89; with AZ628 + Vorinostat (first compound 0.08 µM), 0.878; with AZ628 + Vorinostat (first compound 0.253 µM) it was 0.57; with AZ628 + Vorinostat (first compound 0.8 µM), 0.642; with AZ628 + Vorinostat (first compound 2.53 µM), 0.562. Besides, the relative viability in the test with AZ628 + Vorinostat (first compound 8 µM) was found to be 0.449.
As for EPLC-272H, the relative viability with QS11 + Navitoclax (first compound 0.08 µM) worked out at 1.13; with QS11 + Navitoclax (first compound 0.253 µM), 1.17; with QS11 + Navitoclax (first compound 0.8 µM), 1.15; with QS11 + Navitoclax (first compound 2.53 µM) it was 1.08; with QS11 + Navitoclax (first compound 8 µM) it was 1.36; with Darinaparsin + Dasatinib (first compound 0.8 µM), 0.275. The relative viability came out at 0.223 with Darinaparsin + Dasatinib (first compound 2.53 µM); 0.371 with Darinaparsin + Dasatinib (first compound 8 µM); 1.01 in the test with QS11 + Lapatinib (first compound 0.08 µM); 0.855 with QS11 + Lapatinib (first compound 0.253 µM); 0.953 with QS11 + Lapatinib (first compound 0.8 µM); 0.98 with QS11 + Lapatinib (first compound 2.53 µM). The relative viability came to 0.871 in the test with QS11 + Lapatinib (first compound 8 µM); 0.557 with AZ628 + Vorinostat (first compound 0.08 µM); 0.518 with AZ628 + Vorinostat (first compound 0.253 µM); 0.4 with AZ628 + Vorinostat (first compound 0.8 µM); 0.332 with AZ628 + Vorinostat (first compound 2.53 µM); 0.274 with AZ628 + Vorinostat (first compound 8 µM).
With H3255, the relative viability with QS11 + Navitoclax (first compound 0.08 µM) turned out to be 0.552; with QS11 + Navitoclax (first compound 0.253 µM) it was 0.587; with QS11 + Navitoclax (first compound 2.53 µM), 0.55; with QS11 + Navitoclax (first compound 8 µM) it was 0.704; with Darinaparsin + Dasatinib (first compound 0.08 µM), 0.355; with Darinaparsin + Dasatinib (first compound 0.8 µM), 0.346. Besides, the relative viability worked out at 0.317 with Darinaparsin + Dasatinib (first compound 2.53 µM); 0.338 in the test with Darinaparsin + Dasatinib (first compound 8 µM); 0.261 with QS11 + Lapatinib (first compound 0.08 µM); 0.236 in the test with QS11 + Lapatinib (first compound 0.253 µM); 0.24 in the test with QS11 + Lapatinib (first compound 2.53 µM); 0.234 in the test with QS11 + Lapatinib (first compound 8 µM). Further, the relative viability with AZ628 + Vorinostat (first compound 0.08 µM) was 0.838; in the test with AZ628 + Vorinostat (first compound 0.253 µM) it was 0.781; with AZ628 + Vorinostat (first compound 0.8 µM), 0.846; with AZ628 + Vorinostat (first compound 2.53 µM), 0.87; with AZ628 + Vorinostat (first compound 8 µM) it was 0.824.
As for HARA, the relative viability with QS11 + Navitoclax (first compound 0.08 µM) came out at 1.17; with QS11 + Navitoclax (first compound 0.253 µM), 1.21; with QS11 + Navitoclax (first compound 2.53 µM) it was 1.21; in the test with QS11 + Navitoclax (first compound 8 µM), 1.35; with Darinaparsin + Dasatinib (first compound 0.08 µM), 0.3; with Darinaparsin + Dasatinib (first compound 0.8 µM), 0.282. The relative viability with Darinaparsin + Dasatinib (first compound 2.53 µM) stood at 0.232; with Darinaparsin + Dasatinib (first compound 8 µM), 0.259; with QS11 + Lapatinib (first compound 0.08 µM) it was 0.675; in the test with QS11 + Lapatinib (first compound 0.253 µM), 0.643; with QS11 + Lapatinib (first compound 2.53 µM) it was 0.708; with QS11 + Lapatinib (first compound 8 µM), 0.751. The relative viability with AZ628 + Vorinostat (first compound 0.08 µM) is 0.706; with AZ628 + Vorinostat (first compound 0.253 µM), 0.453; with AZ628 + Vorinostat (first compound 0.8 µM), 0.405; in the test with AZ628 + Vorinostat (first compound 2.53 µM), 0.399; with AZ628 + Vorinostat (first compound 8 µM), 0.183.
Regarding HCC-15, the relative viability with QS11 + Navitoclax (first compound 0.08 µM) came out at 0.728; in the test with QS11 + Navitoclax (first compound 0.253 µM) it was 0.795; in the test with QS11 + Navitoclax (first compound 2.53 µM) it was 0.877; in the test with QS11 + Navitoclax (first compound 8 µM), 0.782; in the test with Darinaparsin + Dasatinib (first compound 0.08 µM), 0.675; with Darinaparsin + Dasatinib (first compound 0.8 µM) it was 0.562. Further, the relative viability in the test with Darinaparsin + Dasatinib (first compound 2.53 µM) was 0.577; with Darinaparsin + Dasatinib (first compound 8 µM) it was 0.628; with QS11 + Lapatinib (first compound 0.08 µM), 0.874; with QS11 + Lapatinib (first compound 0.253 µM), 0.952; in the test with QS11 + Lapatinib (first compound 2.53 µM), 0.883; with QS11 + Lapatinib (first compound 8 µM), 0.748. Further, the relative viability was 0.867 with AZ628 + Vorinostat (first compound 0.08 µM); 0.728 with AZ628 + Vorinostat (first compound 0.253 µM); 0.693 with AZ628 + Vorinostat (first compound 0.8 µM); 0.61 with AZ628 + Vorinostat (first compound 2.53 µM); 0.348 in the test with AZ628 + Vorinostat (first compound 8 µM).
For the cell line HCC-44, the relative viability with QS11 + Navitoclax (first compound 0.08 µM) was determined as 0.943; with QS11 + Navitoclax (first compound 0.253 µM), 0.93; in the test with QS11 + Navitoclax (first compound 0.8 µM), 0.666; with QS11 + Navitoclax (first compound 2.53 µM) it was 0.792; with QS11 + Navitoclax (first compound 8 µM), 0.718; with QS11 + Lapatinib (first compound 0.08 µM), 1.07. Besides, the relative viability with QS11 + Lapatinib (first compound 0.253 µM) is 0.936; with QS11 + Lapatinib (first compound 0.8 µM) it was 0.668; in the test with QS11 + Lapatinib (first compound 2.53 µM), 0.955; in the test with QS11 + Lapatinib (first compound 8 µM), 0.888; with AZ628 + Vorinostat (first compound 0.08 µM) it was 1.16; with AZ628 + Vorinostat (first compound 0.253 µM), 1.17. In addition, the relative viability was 1.15 with AZ628 + Vorinostat (first compound 0.8 µM), 1.02 with AZ628 + Vorinostat (first compound 2.53 µM) and 0.491 in the test with AZ628 + Vorinostat (first compound 8 µM).
With HCC-78, the relative viability with QS11 + Navitoclax (first compound 0.08 µM) stood at 0.802; with QS11 + Navitoclax (first compound 0.253 µM), 0.797; with QS11 + Navitoclax (first compound 0.8 µM) it was 0.756; in the test with QS11 + Navitoclax (first compound 2.53 µM) it was 0.841; with QS11 + Navitoclax (first compound 8 µM) it was 0.818; with Darinaparsin + Dasatinib (first compound 0.08 µM), 0.382. Also, the relative viability in the test with Darinaparsin + Dasatinib (first compound 0.8 µM) was determined as 0.384; with Darinaparsin + Dasatinib (first compound 2.53 µM), 0.375; with Darinaparsin + Dasatinib (first compound 8 µM), 0.386; in the test with QS11 + Lapatinib (first compound 0.08 µM), 0.577; with QS11 + Lapatinib (first compound 0.253 µM), 0.876; with QS11 + Lapatinib (first compound 0.8 µM), 0.699. The relative viability in the test with QS11 + Lapatinib (first compound 2.53 µM) stood at 0.627; in the test with QS11 + Lapatinib (first compound 8 µM), 0.847; with AZ628 + Vorinostat (first compound 0.08 µM) it was 0.523; in the test with AZ628 + Vorinostat (first compound 0.253 µM), 0.439; in the test with AZ628 + Vorinostat (first compound 0.8 µM), 0.465; with AZ628 + Vorinostat (first compound 2.53 µM) it was 0.565. Besides, in the test with AZ628 + Vorinostat (first compound 8 µM), the relative viability was 0.457.
